Assays:
[1] = test system: MCF-7 cells; assay: Inhibition of cell proliferation in MCF-7 cells (CCK-8); format: cell-based; conditions: MCF-7 cell proliferation, 6 days treatment
Protocol: Test Example 3 Inhibitory effect of PROTAC compounds provided by the present invention on cell proliferation in MCF-7 cells
The complete culture medium required for MCF-7 cells (source ATCC) is DMEM (gibco, Product number: 11995-065) basal culture medium containing 10% fetal bovine serum. MCF-7 cells were seeded in 96-well plates at a density of 800 cells/well, and different concentrations of PROTAC compounds 1-55 provided in the examples of the present invention and positive control sample ARV-471 (source: Inokai) were prepared to treat the cells and incubated at 37 °C, 5% CO2 cell culture incubator for 6 days. According to the manufacturer's instructions, cell viability was detected using a CCK-8 kit (Beyotime, Product number: C0040). The IC50 of each PROTAC compound after treating for 6 days was calculated using GraphPadPrism software based on the inhibition rate. Table 3 Inhibition IC50 value of MCF-7 cell proliferation by PROTAC compounds of the present invention and positive control sample

[2] = test system: T-47D cells; assay: Inhibition of cell proliferation in T-47D cells (CCK-8); format: cell-based; conditions: 6 days treatment, CCK-8 cell viability
Protocol: Test Example 2 Inhibitory effect of PROTAC compounds provided by the present invention on cell proliferation in T-47D cells
The complete culture medium required for T-47D cells is 1640 (ATCC, Product number: A10491-01) basal culture medium containing 10% fetal bovine serum. T-47D cells were seeded in 96-well plates at a density of 3,000 cells/well, and different concentrations of PROTAC compounds 1-55 provided in the examples of the present invention and positive control sample ARV-471 (source: Inokai) were prepared to treat the cells and incubated at 37 °C, 5% CO2 cell culture incubator for 6 days. According to the manufacturer's instructions, cell viability was detected using a CCK-8 kit (Beyotime, Product number: C0040). The IC50 of each compound after treating for 6 days was calculated using GraphPadPrism software based on the inhibition rate. Table 2 Inhibition IC50 value of T-47D cell proliferation by PROTAC compounds provided by the present invention and positive control sample

Compound: COc1cc2c(cc1C(=O)NC1CCC(=O)NC1=O)CCC1(CCN(CC3CCC(OC4CCN(c5ccc(C6c7ccc(O)cc7CCC6c6ccccc6)cc5)CC4)CC3)CC1)O2 (stereo not drawn) [ER-P-88]
- IC50 ([1]; Homo sapiens, MCF7, 144 h): 1030 nM
- IC50 ([2]; Homo sapiens, T47D, 144 h): 9.59 nM

Compound: COc1cc2c(cc1C(=O)NC1CCC(=O)NC1=O)C1(CCN(CC3CCC(OC4CCN(c5ccc(C6c7ccc(O)cc7CCC6c6ccccc6)cc5)CC4)CC3)CC1)CO2 [ER-P-91, N-((S)-2,6-dioxopiperidin-3-yl)-1'-(((1S,4R)-4-((1-(4-((1R,2S)-6-hydroxy-2-phenyl-1,2,3,4-tetrahydronaphthalen-1-yl)phenyl)piperidin-4-yl)oxy)cyclohexyl)methyl)-6-methoxy-2H-spiro[benzofuran-3,4'-piperidine]-5-carboxamide]
- IC50 ([1]; Homo sapiens, MCF7, 144 h): 7940 nM
- IC50 ([2]; Homo sapiens, T47D, 144 h): 150 nM

Compound: O=C1CC[C@H](NC(=O)c2ccc3c(c2F)OCC32CCN(CC3CCC(OC4CCN(c5ccc([C@@H]6c7ccc(O)cc7CC[C@@H]6c6ccccc6)cc5)CC4)CC3)CC2)C(=O)N1 (stereo partly drawn) [ER-P-82, N-((S)-2,6-dioxopiperidin-3-yl)-7-fluoro-1'-(((1S,4R)-4-((1-(4-((1R,2S)-6-hydroxy-2-phenyl-1,2,3,4-tetrahydronaphthalen-1-yl)phenyl)piperidin-4-yl)oxy)cyclohexyl)methyl)-2H-spiro[benzofuran-3,4'-piperidine]-6-carboxamide]
- IC50 [1]: 4390 nM
- IC50 [2]: 28.1 nM

Compound: Cn1c(=O)n(C2CCC(=O)NC2=O)c2cc3c(cc21)C1(CCN(C(=O)CN2CCC4(CCN(c5ccc([C@@H]6c7ccc(O)cc7CC[C@@H]6c6ccccc6)cc5)CC4)C2)CC1)CO3 (stereo partly drawn) [ER-P-69, 3-(1'-(2-(8-(4-((1R,2S)-6-hydroxy-2-phenyl-1,2,3,4-tetrahydronaphthalen-1-yl)phenyl)-2,8-diazaspiro[4.5]decan-2-yl)acetyl)-1-methyl-2-oxo-1,2-dihydro-3H,6H-spiro[benzofuro[5,6-d]imidazole-7,4'-piperidin]-3-yl)piperidine-2,6-dione]
- IC50 ([1]; Homo sapiens, MCF7, 144 h): 1.43 nM
- IC50 ([2]; Homo sapiens, T47D, 144 h): 0.28 nM

Compound: CN(CC(=O)N1CC2(CCC3(CC2)COc2c3ccc3c2CN(C2CCC(=O)NC2=O)C3=O)C1)C1CCC2(CC1)CN(c1ccc([C@@H]3c4ccc(O)cc4CC[C@@H]3c3ccccc3)cc1)C2 (stereo partly drawn) [ER-P-72, 3-(1-(N-(2-(4-((1R,2S)-6-hydroxy-2-phenyl-1,2,3,4-tetrahydronaphthalen-1-yl)phenyl)-2-azaspiro[3.5]nonan-7-yl)-N-methylglycyl)-6"-oxo-6",8"-dihydro-2"H,7"H-dipyridole[azetidine-3,1'-cyclohexane-4',3"-furo[2,3-e]isoindol]-7"-yl)piperidine-2,6-dione]
- IC50 ([1]; Homo sapiens, MCF7, 144 h): 14300 nM
- IC50 ([2]; Homo sapiens, T47D, 144 h): 1.34 nM

Compound: O=C1CCC(N2Cc3c(ccc4c3OCC43CCC4(CC3)CN(CC3CCC(OC5CCN(c6ccc([C@@H]7c8ccc(O)cc8CC[C@@H]7c7ccccc7)cc6)CC5)CC3)C4)C2=O)C(=O)N1 (stereo partly drawn) [ER-P-78, 3-(1-(((1S,4S)-4-((1-(4-((1R,2S)-6-hydroxy-2-phenyl-1,2,3,4-tetrahydronaphthalen-1-yl)phenyl)piperidin-4-yl)oxy)cyclohexyl)methyl)-6"-oxo-6'',8''-dihydro-2"H,7"H-dipyrine[azetidine-3,1'-cyclohexane-4',3"-furo[2,3-e]isoindol]-7"-yl)piperidine-2,6-dione]
- IC50 [1]: 737 nM
- IC50 [2]: 5.8 nM

Compound: Cn1c(=O)n(C2CCC(=O)NC2=O)c2ccc3c(c21)OCC31CCN(CC2CCN(c3ccc([C@@H]4c5ccc(O)cc5CC[C@@H]4c4ccccc4)cc3)CC2)CC1 (stereo partly drawn) [ER-P-73, 3-(1'-((1-(4-((1R,2S)-6-hydroxy-2-phenyl-1,2,3,4-tetrahydronaphthalen-1-yl)phenyl)piperidin-4-yl)methyl)-1-methyl-2-oxo-1,2-dihydro-3H,7H-spiro[benzofuro[6,7-d]imidazole-6,4'-piperidin]-3-yl)piperidine-2,6-dione]
- IC50 ([1]; Homo sapiens, MCF7, 144 h): 3270 nM
- IC50 ([2]; Homo sapiens, T47D, 144 h): 49.4 nM

Compound: O=C1CCC(NC(=O)c2cc3c(cc2F)CCC2(CCN(CC4CCC(OC5CCN(c6ccc(C7c8ccc(O)cc8CCC7c7ccccc7)cc6)CC5)CC4)CC2)O3)C(=O)N1 [ER-P-90, N-((S)-2,6-dioxopiperidin-3-yl)-6-fluoro-1'-((((1S,4R)-4-((1-(4-((1R,2S)-6-hydroxy-2-phenyl-1,2,3,4-tetrahydronaphthalen-1-yl)phenyl)piperidin-4-yl)oxy)cyclohexyl)methyl)spiro[chromane-2,4'-piperidine]-7-carboxamide]
- IC50 ([1]; Homo sapiens, MCF7, 144 h): 3650 nM
- IC50 ([2]; Homo sapiens, T47D, 144 h): 171 nM

Compound: O=C1CC[C@H](NC(=O)c2c(F)ccc3c2OCC32CCN(CC3CCC(OC4CCN(c5ccc([C@@H]6c7ccc(O)cc7CC[C@@H]6c6ccccc6)cc5)CC4)CC3)CC2)C(=O)N1 (stereo partly drawn) [ER-P-86]
- IC50 [1]: 6660 nM
- IC50 [2]: 68.8 nM

Compound: Cn1c(=O)n(C2CCC(=O)NC2=O)c2ccc3c(c21)OCC31CCN(C2CCN(C3CCN(c4ccc([C@@H]5c6ccc(O)cc6CC[C@@H]5c5ccccc5)cc4)CC3)CC2)CC1 (stereo partly drawn)
- IC50 ([1]; Homo sapiens, MCF7, 144 h): 11.7 nM
- IC50 ([2]; Homo sapiens, T47D, 144 h): 1.71 nM

Compound: CN(CC(=O)N1CCC2(CC1)CCC1(CC2)COc2c1ccc1c2CN(C2CCC(=O)NC2=O)C1=O)C1CCC2(CC1)CN(c1ccc([C@@H]3c4ccc(O)cc4CC[C@@H]3c3ccccc3)cc1)C2 (stereo partly drawn) [ER-P-71, 3-(1"-(N-(2-(4-((1R,2S)-6-hydroxy-2-phenyl-1,2,3,4-tetrahydronaphthalen-1-yl)phenyl)-2-azaspiro[3.5]nonan-7-yl)-N-methylglycyl)-6-oxo-6,8-dihydro-2H,7H-dipyridole[furo[2,3-e]isoindole-3,1'-cyclohexane-4',4"-piperidin]-7-yl)piperidine-2,6-dione]
- IC50 ([1]; Homo sapiens, MCF7, 144 h): 2020 nM
- IC50 ([2]; Homo sapiens, T47D, 144 h): 8.54 nM

Compound: O=C1CCC(N2Cc3c(ccc4c3OCC43CCC4(CCN(C[C@H]5CC[C@@H](OC6CCN(c7ccc([C@@H]8c9ccc(O)cc9CC[C@@H]8c8ccccc8)cc7)CC6)CC5)CC4)CC3)C2=O)C(=O)N1 (stereo partly drawn) [ER-P-79, 3-(1"-(((1S,4S)-4-((1-(4-((1R,2S)-6-hydroxy-2-phenyl-1,2,3,4-tetrahydronaphthalen-1-yl)phenyl)piperidin-4-yl)oxy)cyclohexyl)methyl)-6-oxo-6,8-dihydro-2H,7H-dispiro[furo[2,3-e]isoindole-3,1'-cyclohexane-4',4"-piperidin]-7-yl)piperidine-2,6-dione]
- IC50 [1]: 63.4 nM
- IC50 [2]: 8.46 nM

Compound: Cn1c(=O)n(C2CCC(=O)NC2=O)c2ccc3c(c21)OCC31CCN(C(=O)C2CCN(CC3CCN(c4ccc([C@@H]5c6ccc(O)cc6CC[C@@H]5c5ccccc5)cc4)CC3)CC2)CC1 (stereo partly drawn) [ER-P-74]
- IC50 ([1]; Homo sapiens, MCF7, 144 h): 2100 nM
- IC50 ([2]; Homo sapiens, T47D, 144 h): 1.22 nM

Compound: COc1cc2c(cc1C(=O)N[C@H]1CCC(=O)NC1=O)OCC21CCN(CC2CCC(OC3CCN(c4ccc([C@@H]5c6ccc(O)cc6CC[C@@H]5c5ccccc5)cc4)CC3)CC2)CC1 (stereo partly drawn) [ER-P-84, N-((S)-2,6-dioxopiperidin-3-yl)-1'-(((1S,4R)-4-((1-(4-((1R,2S)-6-hydroxy-2-phenyl-1,2,3,4-tetrahydronaphthalen-1-yl)phenyl)piperidin-4-yl)oxy)cyclohexyl)methyl)-5-methoxy-2H-spiro[benzofuran-3,4'-piperidine]-6-carboxamide]
- IC50 [1]: 8330 nM
- IC50 [2]: 17.7 nM

Compound: O=C1CCC(NC(=O)c2cc3c(cc2F)C2(CCN(CC4CCC(OC5CCN(c6ccc(C7c8ccc(O)cc8CCC7c7ccccc7)cc6)CC5)CC4)CC2)CO3)C(=O)N1 [ER-P-87, N-((S)-2,6-dioxopiperidin-3-yl)-5-fluoro-1'-(((1S,4R)-4-((1-(4-((1R,2S)-6-hydroxy-2-phenyl-1,2,3,4-tetrahydronaphthalen-1-yl)phenyl)piperidin-4-yl)oxy)cyclohexyl)methyl)-2H-spiro[benzofuran-3,4'-piperidine]-6-carboxamide]
- IC50 ([1]; Homo sapiens, MCF7, 144 h): 4000 nM
- IC50 ([2]; Homo sapiens, T47D, 144 h): 53 nM

From patent publication EP4722219A1 (Gan & Lee Pharmaceuticals Co., Ltd., priority 2023, dated 2024)
